Values after ≈ are worked out from the molar mass of the structure shown. Values joined by “and” are separate entries in the source; they are usually repeats but may differ in a detail not shown here. Equal values may be shown once. Read-outs that look alike come from different tables or passages of the source.
Assays:
[1] = system: M14; assay: NCI single-dose growth inhibition screen; type: cell-based; conditions: Homo sapiens; Melanoma M14; single dose 10^−5 M
Experimental: Following the guidelines established by the drug evaluation department of the National Cancer Institute (NCI), USA, all target compounds 3a–l were examined against 60 cancer cell lines at a single concentration of 10 µM.
The anti-cancer potential of the tested compounds was evaluated at the National cancer institute (NCI), USA, against 9 panels of 60 various cell lines derived from nine human tumours available usually at NCI library. The procedures for the screening were described in details in NCI website (dttp://www.dtp.nci.nih.gov.) and were done according to NCI protocols[60] . The anticancer screening was carried out at single dose of 10^−5 M, NCI, Bethesda, USA. The results obtained as growth inhibition (%).

[2] = system: ACHN; assay: NCI single-dose growth inhibition screen; type: cell-based; conditions: Homo sapiens; Renal Cancer ACHN; single dose 10^−5 M
[3] = system: RPMI-8226; assay: NCI single-dose growth inhibition screen; type: cell-based; conditions: Homo sapiens; Leukemia RPMI-8226; single dose 10^−5 M
[4] = system: NCI-H522; assay: NCI single-dose growth inhibition screen; type: cell-based; conditions: Homo sapiens; Non-Small Cell Lung Cancer NCI-H522; single dose 10^−5 M
[5] = system: OVCAR-8; assay: NCI single-dose growth inhibition screen; type: cell-based; conditions: Homo sapiens; Ovarian Cancer OVCAR-8; single dose 10^−5 M
[6] = system: UACC-62; assay: NCI single-dose growth inhibition screen; type: cell-based; conditions: Homo sapiens; Melanoma UACC-62; single dose 10^−5 M
[7] = system: K-562; assay: NCI single-dose growth inhibition screen; type: cell-based; conditions: Homo sapiens, K562; Leukemia K-562; single dose 10^−5 M
[8] = system: SNB-75; assay: NCI single-dose growth inhibition screen; type: cell-based, human; conditions: Homo sapiens, SNB-75, CNS Cancer SNB-75; single dose 10^−5 M
[9] = system: K. pneumoniae ATCC 10,031; assay: Antibacterial screening, agar cup diffusion method; type: cell-based; conditions: read-out: Minimum inhibitory concentrations (MIC, µM) K. pneumoniae ATCC 10,031
Experimental: Anti-bacterial activity of the recently synthesized compounds 3a-k was evaluated at AUMC (Assiut University Mycological Centre), Assiut, Egypt. Assays were done against Gram-negative strains of K. pneumoniae (ATCC 100310, E. coli (ATCC 25922), Pseudomonas aeruginosa (ATCC 27853) and the Gram-positive S. aureus (ATCC 6538) strain utilizing standard agar cup diffusion method. The isolates from the four bacterial species examined were kept in TSB (Trypticase Soya Broth, Becton and Dickinson) with 10% glycerol at -70 °C and then subcultured on TSA (Trypticase Soya Agar, Becton and Dickinson) and TSB for 24 h at 37 °C former to inoculation. Bacterial isolates were then plated on sterile petri plates with 1 × 10^8 CFU/mL (0.5 McFarland turbidity) and 20 mL of Mueller Hinton Agar media (Oxoid) was then loaded. To ensure that the microorganisms were evenly dispersed, the plates were gently rotated before being left to harden on a level surface. Four equally spaced spherical-shaped wells (10 mm diameter) were painstakingly drilled using a sterilized cork bore after media solidification. All tested compounds under test underwent two-fold serial dilutions in a sequential manner. Three replications of 100 µL of each concentration were added to a well using a micropipette. Plates were then incubated for 24-hour at 37 °C. The average of the inhibition zones was then calculated. To determine the MICs, the natural logarithm of each diluted test substance’s concentration was plotted against the average area of the related inhibition zone. Following that, a regression line was created and the intercept on the ‘ln concentration” axis was determined, and the antilogarithm was calculated to indicate the MIC value[34],[63].

[10] = system: MDA-MB-468; assay: NCI single-dose growth inhibition screen; type: cell-based; conditions: Homo sapiens; Breast Cancer MDA-MB-468; single dose 10^−5 M
[11] = system: MDA-MB-435; assay: NCI single-dose growth inhibition screen; type: cell-based; conditions: Homo sapiens; Melanoma MDA-MB-435; single dose 10^−5 M
[12] = system: CAKI-1; assay: NCI single-dose growth inhibition screen; type: cell-based; conditions: Homo sapiens; Renal Cancer CAKI-1; single dose 10^−5 M
[13] = system: DU-145; assay: NCI single-dose growth inhibition screen; type: cell-based; conditions: Homo sapiens; Prostate Cancer DU-145; single dose 10^−5 M
[14] = system: SN12C; assay: NCI single-dose growth inhibition screen; type: cell-based; conditions: Homo sapiens; Renal Cancer SN12C; single dose 10^−5 M
[15] = system: RXF 393; assay: NCI single-dose growth inhibition screen; type: cell-based; conditions: Homo sapiens; Renal Cancer RXF 393; single dose 10^−5 M
[16] = system: 786-0; assay: NCI single-dose growth inhibition screen; type: cell-based; conditions: Homo sapiens; Renal Cancer 786-0; single dose 10^−5 M
[17] = system: HCT-116; assay: NCI single-dose growth inhibition screen; type: cell-based; conditions: Homo sapiens; Colon Cancer HCT-116; single dose 10^−5 M
[18] = system: LOX IMVI; assay: NCI single-dose growth inhibition screen; type: cell-based, human; conditions: Melanoma LOX IMVI, single dose 10^−5 M; for inhibition at 10 µM: Homo sapiens, LOX IMVI
[19] = system: A498 renal cancer cell line; assay: cells; conditions: Homo sapiens; for viability at 0.4 µM / viability at 1.6 µM / viability at 25 µM / viability at 100 µM: A498; for IC50: A498, read-out: In vitro cytotoxicity (IC50) A498 cell line (µM ± SEM)
[20] = system: human melanoma LOX IMVI; assay: cells; conditions: for IC50: read-out: In vitro cytotoxicity (IC50) LOX IMVI (µM ± SEM)
[21] = Klebsiella pneumoniae, ATCC10, Gram –ve strain

SMILES | inhibition at 10 µM [1] | inhibition at 10 µM [2] | inhibition at 10 µM [3] | inhibition at 10 µM [4] | inhibition at 10 µM [5] | inhibition at 10 µM [6] | inhibition at 10 µM [7] | inhibition at 10 µM [8] | MIC ([9]; Gram –ve strain) | MIC [9, 21] | inhibition at 10 µM [10] | inhibition at 10 µM [11] | melting point | inhibition at 10 µM [12] | inhibition at 10 µM [13] | inhibition at 10 µM [14] | inhibition at 10 µM [15] | inhibition at 10 µM [16] | inhibition at 10 µM [17] | inhibition at 10 µM [18] | further results
O=C(O)c1cn(C2CC2)c2cc(N3CCN(C(=O)CCCN4C(=O)SC(=Cc5cccc([N+](=O)[O-])c5)C4=O)CC3)c(F)cc2c1=O [3d, 1-cyclopropyl-6-fluoro-7-[4-[4-[5-[(3-nitrophenyl)methylene]-2,4-dioxo-thiazolidin-3-yl]butanoyl]piperazin-1-yl]-4-oxoquinoline-3-carboxylic acid] | 0.8% | 4.2% | < 0% | 20.7% | 3.1% | 10.3% | < 0% | 18.2% | 0.13 µM (≈ 0.0845 µg/mL) | 0.13 to 0.8 µM (≈ 0.0845 to 0.52 µg/mL) | 0.5% | < 0% | 263 °C | 5% | < 0% | 3.7% | < 0% | 8.5% | < 0% | 26.5% | 
O=C(O)c1cn(C2CC2)c2cc(N3CCN(C(=O)CCCN4C(=O)SC(=Cc5ccccc5)C4=O)CC3)c(F)cc2c1=O [3a, 7-[4-[4-[5-benzylidene-2,4-dioxo-thiazolidin-3-yl]butanoyl]piperazin-1-yl]-1-cyclopropyl-6-fluoro-4-oxo-quinoline-3-carboxylic acid] | 8.2% | 14.5% | 11.4% | 27.4% | 15.4% | 28.6% | 22.5% | 29.1% | 0.22 µM (≈ 0.133 µg/mL) | 0.13 to 0.8 µM (≈ 0.0786 to 0.484 µg/mL) | 12.9% | 7.8% | 238 °C | 10.9% | < 0% | 2.6% | < 0% | 21.2% | 19.3% | 41.4% | viability at 0.4 µM [19]: 103%; viability at 1.6 µM [19]: 92.7%; viability at 25 µM [19]: 69.3%; viability at 100 µM [19]: 56.1%; IC50 [19]: > 150 µM; viability at 0.4 µM [20]: 77.9%; viability at 1.6 µM [20]: 69.2%; viability at 25 µM [20]: 48.8%; viability at 100 µM [20]: 40.4%; IC50 [20]: 26.7 ± 1.5 µM; Growth Inhibition (%) [18]: 53.25% and 53.3%
O=C(O)c1cn(C2CC2)c2cc(N3CCN(C(=O)CCCN4C(=O)SC(=Cc5cccc6ccccc56)C4=O)CC3)c(F)cc2c1=O [3j, 1-cyclopropyl-6-fluoro-7-[4-[4-[5-(1-naphthylmethylene)-2,4-dioxo-thiazolidin-3-yl]butanoyl]piperazin-1-yl]-4-oxo-quinoline-3-carboxylic acid] | 16.7% | 11.5% | 6.1% | 18.5% | 9% | 20.4% | 10.9% | 28.4% |  | > 20 µM | 4.7% | 12.8% | 219 °C | 18% | 21.9% | 24.1% | 11.2% | 18.5% | 10.6% | 38.5% | viability at 0.4 µM [19]: 84.7%; viability at 1.6 µM [19]: 71.9%; viability at 25 µM [19]: 51.4%; viability at 100 µM [19]: 42.5%; IC50 [19]: 33.9 ± 1.91 µM; viability at 0.4 µM [20]: 86.5%; viability at 1.6 µM [20]: 79.4%; viability at 25 µM [20]: 61.5%; viability at 100 µM [20]: 48.5%; IC50 [20]: 110 ± 6.23 µM; Growth Inhibition (%) [18]: 38.5%
